Source: patent US20040043498A1, “Reagent for determining singlet oxygen” (priority 2003, published 2004)

Experiment: Light stability of DMAX-EP (photobleaching under continuous excitation light)
Format: physicochemical
Details: 0.1 M phosphate buffer pH 7.4, 0.1% DMSO, 37° C.
Description: 5.0 μM aqueous solutions of DMAX-EP (endoperoxide of Compound 11 in the above scheme) and DPAX-1-EP (endoperoxide of Compound 13 described in International Patent Publication WO99/51586, Example 1) [0.1 M phosphate buffer (pH 7.4) containing 0.1% DMSO as a cosolvent] were each placed in a fluorescent cell and exposed to an excitation light of 491 nm at 37° C. with stirring, and fluorescence was measured at 620 nm by using a fluorometer while the solution was continuously exposed to the excitation light.

Substance: DMAX-EP
- Photobleaching relative to DPAX-1-EP (5.0 μM aqueous solution, excitation 491 nm, fluorescence at 620 nm): 5.4 times slower
- Light stability (5.0 μM, continuous 491 nm excitation): excellent light stability
